Assay results as given in patent publication US20110306570A1, “Na/K-Atpase Expression as an Indicator for the Treatment of Cancer” (UNIVERSITY OF TOLEDO, priority 2008, published 2011).

Test system: Na/K-ATPase α1 mRNA
Test: Na/K-ATPase α1 mRNA by RT-PCR, BT20 cells
Type: cell-based, human
Details: 10 nM ouabain, 24 h
Method: Total RNA was extracted and applied for RT-PCR to probe Na/K-ATPase α1 as described in the Experimental Procedures section.
Quantitative RT-PCR: The cells were seeded in 6-cm dishes and serum-starved for 24 h after the confluence reached 90%. […] Total RNA was extracted using TRIzol and subjected to quantitative RT-PCR analysis. The assays were performed on the AB 7500 real time PCR system with the following protocol: 1 cycle (6 min at 95° C.), 40 cycles (30 s at 95° C., 30 s at 52° C., 30 s at 72° C., and 1 min at 85° C.), followed by a dissociation stage to ensure a single product. The reactions are in a total volume of 25 μl, including 1.25 µl of Sybr Green (Invitrogen), 0.125 µl of DNA polymerase (Denville), 2.5 µl of dNTP (Invitrogen), 10 ng of cDNA. Primer pairs were used at 5 μM concentration, and the sequences are:
The relative Na/K-ATPase al gene expression was calculated by comparative threshold (CT) method (ΔΔCT). To normalize the difference amounts of cDNA, GAPDH was used as an internal control.

**Q.** Which “levels of α1 mRNA” value does the source give for `C[C@@H]1O[C@@H](O[C@H]2C[C@@H](O)[C@]3(CO)[C@H]4[C@H](O)C[C@]5(C)[C@@H](C6=CC(=O)OC6)CC[C@]5(O)[C@@H]4CC[C@]3(O)C2)[C@H](O)[C@H](O)[C@H]1O` [ouabain] here?
**A.** Its value is “no effect on levels of α1 mRNA”.
